Source: article PMC8305076, “Comprehensive Evaluation of Biological Effects of Pentathiepins on Various Human Cancer Cell Lines and Insights into Their Mode of Action” (International Journal of Molecular Sciences, 2021)

Assays:
Assay type in all cases: cell-based, human
DanG = test: DCFDA flow cytometric ROS assay, acute; conditions: 25 µM, 15 min
Method: (§1) According to the hypothesized mechanism of action (see Figure 3), pentathiepins can create oxidative stress via generation of reactive sulfur precursors. We have previously reported that a representative pentathiepin can increase the intracellular levels of ROS in two cancer cell lines. This effect was thus further evaluated with the new compounds in seven cell lines (Figure 8). The cells were incubated for 15 min with 25.0 µM pentathiepin and subsequently analyzed by using the intracellular ROS sensor 2′,7′-dichlorodihydrofluorescein diacetate (DCFDA) by flow cytometry.
(§2) In order to quantify intracellular ROS, we performed a flow cytometric assay based on the ROS-sensor 2′,7′-dichlorofluorescein diacetate (DCFDA). For acute effects of pentathiepins on intracellular ROS levels, the cells were stained with DCFDA first and subsequently incubated with 25 µM of compound for 10 min. […] Per condition, 250,000 cells were seeded in 2 mL of medium per well of a 6-well plate and allowed to adhere overnight. For measurement of acute ROS, the cells were stained with 1 mL of a 20 µM DCFDA-PBS solution for 30 min under standard incubation conditions. Afterwards, the solution was discarded, and the monolayer washed twice with 1 mL of PBS before 3 mL of medium containing 25 µM of pentathiepin was added for 10 min at 37 °C. After removing the solution and washing again with PBS, the cells were detached by using 0.5 mL of a diluted trypsin/EDTA-PBS solution (25%) and harvested with 1 mL of culture medium by carefully rinsing the wells. The cell suspension was transferred to 1.5 mL tubes, centrifuged for 5 min at 500× g, and washed with 1 mL of PBS. After removing the supernatant, each pellet was resuspended in 0.5 mL of PBS for measurement via the MACSquant Analyzer 10 at λEx/Em = 488/530 nm. Relative ROS levels resulting from treatment with pentathiepin were calculated by relating the fluorescence intensity of treated samples to the negative control. For the experiments covering periods of 24 and 48 h, the cells were incubated with the compounds first and stained with DCFDA afterwards. To assess the influence of additional GSH, we included 3 or 30 µM GSH to the medium containing 25 µM of pentathiepin, and the protocol was followed as described.

PATU-8902 = test: DCFDA flow cytometric ROS assay, acute; conditions: 25 µM, 15 min
Method: as §1, §2

[1] = tested on: caspase-3 and -7 in HAP-1; test: luminescent caspase activity assay; conditions: pentathiepins IC90, doxorubicin 0.5 µM, 24 h
Description: To further corroborate this mode of cell death, we performed a luminescent caspase assay by measuring caspase-3 (cas-3) and caspase-7 (cas-7) activities (Figure 16). Both are executioner caspases that are present as zymogens (35 kDa) and become active after being cleaved (fragment sizes 17 and 19 kDa) by initiator caspases. Activated cas-3 and -7 in turn have several other substrates, including PARP1. In this assay, a precursor with a caspase-specific target sequence was converted into its luminescent form by active caspase-3 or -7, thereby emitting light that can be quantified.
To study the activation of the effector caspases -3 and -7, we performed a luminescence-based assay according to the manufacturer’s instructions (Caspase-Glo, Promega, Walldorf, Germany). Briefly, 5000 cells were seeded in 0.1 mL per well of a 96-well plate and allowed to adhere overnight. […] Afterwards, the standard protocol was followed, including a 30 min incubation time before measurement of luminescent signals by using the Spectramax i3x (Molecular Devices, Sunnyvale, CA, USA). After subtraction of the background luminescence the positive control and treatment conditions were related to the negative control.

PARP1 in A2780 = test: Western blot of cleaved PARP1; conditions: IC90, 24 h
Method: (§3) In addition to general flow cytometric and microscopic analyses, Western blotting was performed to detect the apoptosis-relevant protein PARP1 (poly(ADP-ribose) polymerase 1) and its cleavage fragment (Figure 17 and Figures S29–S34). Full-length PARP1 (116 kDa) is involved in DNA repair, and a cleavage by caspases (fragment sizes 24 and 89 kDa) caused by caspase-3 and -7 is a hallmark of late apoptosis.
(§4) All detected specific bands were normalized to the total protein load per lane by the TGX stain-free gel system from Bio-Rad.
(§5) All Western blot analyses were performed with reagents, material, and devices purchased from Bio-Rad (Feldkirchen, Germany) if not stated otherwise. To obtain protein lysates, we seeded cells and treated them as described for the other methods. […] Cells were harvested by trypsinization and centrifugation for 5 min at 500× g. After a washing step with PBS, the cell pellet was resuspended in lysis buffer (Tris 50 mM (pH 7.4), 100 mM NaCl, 100 mM NaF, 5 mM EDTA, 0.2 mM Na3VO4, 0.1% Triton-X, and 1% protease inhibitor cocktail added immediately before use). Lysis was supported by incubating the samples for 10 min in an ultrasonic bath before centrifuging for 10 min at 18,000 × g and 4 °C. Protein quantification was performed via the Bradford method using ROTI®nanoquant reagent (Carl Roth GmbH, Karlsruhe, Germany) and bovine serum albumin as calibration standard. For electrophoretic separation, 15–40 µg of protein was loaded per well of a polyacrylamide gel (Mini- or Midi-Protean® TGX stain-free gel, Bio-Rad, Feldkirchen, Germany), and subsequent blotting was performed with Trans-Blot®Turbo™TransferPack Mini or Midi PVDF membranes from Bio-Rad (Feldkirchen, Germany). The membranes were blocked with a 10% non-fat milk powder solution in Tris-buffered saline (TBS; 2.42 g/L Tris, 8.48 g/L NaCl in water) plus 0.5% Tween-20 (TBST) for 1 h at RT. Incubation with primary antibodies took place over night at 4 °C in a 1:1000 dilution in TBST containing BSA (1%). The secondary antibodies conjugated to horse-radish peroxidase were diluted 1:10,000 in TBST and 1% BSA, and incubated for 4 h at RT. A detection step followed, applying Clarity™Western ECL substrate with subsequent imaging via the INTAS Advanced Fluorescence Imager. Between all incubation steps, the blots were washed three times for 10 min with TBST. The bands were quantified with the ImageLab software and normalized using the total protein quantification of the TGX stain-free gel system from Bio-Rad.

PARP1 in HAP-1 = test: Western blot of cleaved PARP1; conditions: pentathiepins IC90, doxorubicin 0.5 µM, 24 h
Method: as §3, §4, §5

PARP1 in Siso = test: Western blot of cleaved PARP1; conditions: IC90, 24 h
Method: as §3, §4, §5

SMILES	intracellular ROS levels (DanG)	intracellular ROS levels (PATU-8902)	caspase-3 and -7 activity vs solvent control [1]	fraction of 89 kDa PARP1 (PARP1 in A2780)	cleaved PARP1 (PARP1 in HAP-1)	fraction of 89 kDa PARP1 (PARP1 in Siso)
CCOc1c2c(c3ccc(C(=O)N4CCCCC4)cn13)SSSSS2 [Compound 2, (6-Ethoxy-[1,2,3,4,5]pentathiepino[6,7-a]indolizin-9-yl)(piperidinyl)methanone]	high levels of intracellular ROS were detected	high levels of intracellular ROS were detected	statistically significant results	–	–	–
CCOc1c2c(c3ccc(C(=O)N4CCOCC4)cn13)SSSSS2 [Compound 3, (6-Ethoxy-[1,2,3,4,5]pentathiepino[6,7-a]indolizin-9-yl)(morpholino)methanone]	high levels of intracellular ROS were detected	high levels of intracellular ROS were detected	–	very small and only confirmed after treatment with pentathiepins 3 or 5	trends for increased levels	very small and only confirmed after treatment with pentathiepins 3 or 5
CCOc1c2c(c3ccc(C(=O)N(CC)CC)cn13)SSSSS2 [Compound 4, 6-Ethoxy-N,N’-diethyl-[1,2,3,4,5]pentathiepino[6,7-a]indolizine-9-carboxamide]	high levels of intracellular ROS were detected	high levels of intracellular ROS were detected	statistically significant results	–	–	–
CCOc1c2c(c3ccc(C(=O)N4CCN(C(=O)c5ccc(F)cc5)CC4)cn13)SSSSS2 [Compound 5, (6-Ethoxy-[1,2,3,4,5]pentathiepino[6,7-a]indolizin-9-yl)(4-(4-fluorobenzoyl)piperazinyl)methanone]	high levels of intracellular ROS were detected	high levels of intracellular ROS were detected	–	very small and only confirmed after treatment with pentathiepins 3 or 5	trends for increased levels	very small and only confirmed after treatment with pentathiepins 3 or 5
CCOc1c2c(c3ccc(C(=O)N4CCN(S(=O)(=O)c5ccc(C)cc5)CC4)cn13)SSSSS2 [Compound 6, (6-Ethoxy-[1,2,3,4,5]pentathiepino[6,7-a]indolizin-9-yl)(4-tosylpiperazinyl)methanone]	–	–	statistically significant results	–	relevant and significant quantities of cleaved PARP1	–
